In patent US10392383B2, “3-(1H-benzo[d]imidazol-2-yl)-1H-pyrazolo[4,3-b]pyridines and therapeutic uses thereof” (Samumed, LLC, priority 2015, dated 2019) one finds EC50 and inhibition data, which are given here for nine compounds.

Common to all, as to format: cell-based
The test system of experiment [1] is primary human fibroblasts derived from IPF patients (LL29 cells) treated with TGF-β1. The experiment can be described thus: Inhibition of the fibrotic process: αSMA staining in TGF-β1-treated LL29 fibroblasts. To be noted: Fibroblast; for EC50: 96 h, LL29 fibroblasts treated with TGF-β1 (20 ng/mL), 4 days, Table 4; for inhibition at 10 µM: LL29 fibroblasts treated with TGF-β1, Table 4, read-out: percent inhibition at 10 μM (given in parentheses for EC50 >10 μM). The essentials: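 IPF-derived LL29 fibroblasts in F12 with 1% FBS dosed with compound (11-point, 10 μM to 1.87 nM, 0.1% DMSO), then 20 ng/mL TGF-β1 after 1 h, and cultured 4 days at 37 °C. αSMA-positive cell fraction imaged after excluding SYTOX-positive cells, normalized to TGF-β1/DMSO wells; EC50 by non-linear regression, % inhibition at 10 μM if EC50 >10 μM.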

The next experiment relates to SW480 colon cancer cells. The experiment can be described thus: Cell viability assay (CellTiter-Blue) in SW480 cells. To be noted: Homo sapiens, 96 h, four days, CellTiter-Blue, 10 μM to 0.0045 μM. The method, boiled down: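 Approximately 2×10^3 SW480 cells per well are seeded with compound (8 points, threefold steps, top 10 μM) and incubated four days at 37 °C. CellTiter-Blue is then added for about 3 h and fluorescence read. Non-linear regression gives EC50; for values beyond 10 μM, percent inhibition at that concentration is listed.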

Another experiment has as its system IL-6 (THP-1 cells). Nature of the experiment: IL-6 inhibition in LPS-stimulated THP-1 monocytes (HTRF). To be noted: Homo sapiens, IL-6 HTRF; for EC50: 500 ng/mL LPS, Table 6; for inhibition at 10 µM: LPS, Table 6, read-out: percent inhibition at 10 μM (given in parentheses for EC50 >10 μM). The essentials: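 THP-1 cells in 1% FBS pre-incubated 2 h with compound (10-point 1:3 series from 10 μM, 0.1% DMSO), then stimulated with 500 ng/mL LPS for 22 h at 37 °C. IL-6 measured by HTRF 665/620 ratio, normalized to DMSO; EC50 by four-parameter fit, or % inhibition at 10 μM when EC50 >10 μM.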

With `Cc1cn(-c2cccc3[nH]c(-c4n[nH]c5ccc(-c6cncc(NC(=O)C(C)(C)C)c6)nc45)nc23)cn1` [Compound 204, N-(5-(3-(4-(4-Methyl-1H-imidazol-1-yl)-1H-benzo[d]imidazol-2-yl)-1H-pyrazolo[4,3-b]pyridin-5-yl)pyridin-3-yl)pivalamide], the EC50 – broadly, the concentration giving half of the maximal effect – in experiment [1] was 0.997 µM; in the experiment on SW480 colon cancer cells, 1.51 µM; in the experiment with IL-6 (THP-1 cells), 6.38 µM.

As to `Cc1cn(-c2cccc3[nH]c(-c4n[nH]c5ccc(-c6cncc(CN7CCCC7)c6)nc45)nc23)cn1` [Compound 210, 3-(4-(4-Methyl-1H-imidazol-1-yl)-1H-benzo[d]imidazol-2-yl)-5-(5-(pyrrolidin-1-ylmethyl)pyridin-3-yl)-1H-pyrazolo[4,3-b]pyridine], the inhibition (as a rule, how much of the control response was suppressed) at 10 µM came to 30.4% in experiment [1] and 33.2% with IL-6 (THP-1 cells). Moreover, the values for the EC50 (in experiment [1]; with SW480 colon cancer cells; in the experiment on IL-6 (THP-1 cells)) were over 10 µM, 8.47 µM and over 10 µM, respectively.

Turning to `Cc1cn(-c2cccc3[nH]c(-c4n[nH]c5ccc(-c6cncc(NC(=O)C7CCC7)c6)nc45)nc23)cn1` [Compound 217, N-(5-(3-(4-(4-Methyl-1H-imidazol-1-yl)-1H-benzo[d]imidazol-2-yl)-1H-pyrazolo[4,3-b]pyridin-5-yl)pyridin-3-yl)cyclobutanecarboxamide], the inhibition at 10 µM in experiment [1] is 0%; in the experiment on IL-6 (THP-1 cells) it was 51.9%. Besides, the EC50 was over 10 µM in experiment [1], 3.5 µM in the experiment on SW480 colon cancer cells and over 10 µM in the experiment with IL-6 (THP-1 cells).

For `CN1CCN(c2cccc3[nH]c(-c4n[nH]c5ccc(-c6cncc(NC(=O)C7CCCC7)c6)nc45)nc23)CC1` [Compound 246, N-(5-(3-(4-(4-Methylpiperazin-1-yl)-1H-benzo[d]imidazol-2-yl)-1H-pyrazolo [4,3-b]pyridin-5-yl)pyridin-3-yl)cyclopentanecarboxamide], the values for the EC50 (in experiment [1]; with SW480 colon cancer cells; in the experiment with IL-6 (THP-1 cells)) were 4.95 µM, 8.36 µM and over 10 µM, respectively. Further, the inhibition at 10 µM in the experiment with IL-6 (THP-1 cells) was 35.7%.

For the compound `c1cncc(-c2ccc3[nH]nc(-c4nc5ccccc5[nH]4)c3n2)c1` [Compound 256, 3-(1H-Benzo[d]imidazol-2-yl)-5-(pyridin-3-yl)-1H-pyrazolo[4,3-b]pyridine], the inhibition at 10 µM (in experiment [1]; in the experiment with IL-6 (THP-1 cells)) was 0% throughout. Further, the results for the EC50 (in experiment [1]; in the experiment with SW480 colon cancer cells; with IL-6 (THP-1 cells)) were over 10 µM, 8.84 µM and over 10 µM, respectively.

In the case of `CC(C)(C)CC(=O)Nc1cncc(-c2ccc3[nH]nc(-c4nc5ccccc5[nH]4)c3n2)c1` [Compound 268, N-(5-(3-(1H-Benzo[d]imidazol-2-yl)-1H-pyrazolo[4,3-b]pyridin-5-yl)pyridin-3-yl)-3,3-dimethylbutanamide], the results for the EC50 (in experiment [1]; with SW480 colon cancer cells; in the experiment with IL-6 (THP-1 cells)) were 2.38 µM, 6.95 µM and 2.5 µM, respectively.

`O=C(Nc1cncc(-c2ccc3[nH]nc(-c4nc5ccccc5[nH]4)c3n2)c1)C1CCCCC1` [Compound 275, N-(5-(3-(1H-Benzo[d]imidazol-2-yl)-1H-pyrazolo[4,3-b]pyridin-5-yl)pyridin-3-yl) cyclohexanecarboxamide]: the half-maximal effective concentration (EC50) in experiment [1] amounted to 0.0808 µM; in the experiment on SW480 colon cancer cells it was 0.593 µM; in the experiment with IL-6 (THP-1 cells), 1.84 µM.

Regarding `c1ccc(-c2ccc3[nH]nc(-c4nc5ccccc5[nH]4)c3n2)nc1` [Compound 280, 3-(1H-Benzo[d]imidazol-2-yl)-5-(pyridin-2-yl)-1H-pyrazolo[4,3-b]pyridine], the EC50 in experiment [1] turned out to be 4.74 µM; in the experiment on SW480 colon cancer cells, 1.89 µM; in the experiment with IL-6 (THP-1 cells), 0.0727 µM.

With `Cc1ccncc1-c1ccc2[nH]nc(-c3nc4c(-c5ccsc5)cccc4[nH]3)c2n1` [Compound 285, 5-(4-Methylpyridin-3-yl)-3-(4-(thiophen-3-yl)-1H-benzo[d]imidazol-2-yl)-1H-pyrazolo[4,3-b]pyridine], the inhibition at 10 µM in experiment [1] came to 0%; with IL-6 (THP-1 cells) it was 36.3%. The EC50 in experiment [1] was over 10 µM; with SW480 colon cancer cells, 5.4 µM; in the experiment with IL-6 (THP-1 cells) it was over 10 µM.
